Reference: patent publication US8008303B2, “Biphenyl derivatives and their use in treating hepatitis C” (AstraZeneca AB, priority 2005, dated 2011)
Where two headings read alike, the source gives them in different places.

Assays:
[1] = tested on: HCV replicon cells Huh 9B; assay: HCV replicon assay (luciferase readout); assay type: cell-based
Method: (§1) HCV replicon cells Huh 9B (ReBlikon), containing the firefly luciferase-ubiquitin-neomycin phosphotransferase fusion protein and EMCV-IRES driven HCV polyprotein with cell culture adaptive mutations.
Cells were cultured at 37° C. in a 5% CO2 environment and split twice a week on seeding at 2×10^6 cells/flask on day 1 and 1×10^6 3 days later. G418 at 0.5 mg/ml was added to the culture medium but not the assay medium.
The culture medium consisted of DMEM with […] glucose and glutamax (Gibco 61965-026) supplemented with 1× non-essential amino acids (Invitrogen 11140-035), penicillin (100 IU/ml)/streptomycin (100 μg/ml) (Invitrogen 15140-122), FCS (10%, 50 ml) and 1 mg/ml G418 (Invitrogen 10131-027) & 10% Australian foetal calf serum (Invitrogen 10099-141).
A flask of cells was trypsinised and a cell count carried out. Cells were diluted to 100,000 cells/ml and 100 μl of this used to seed one opaque white 96-well plate (for the replicon assay) and one flat-bottomed clear plate (for the tox assay) for every seven compounds to be tested for IC50. Wells G12 and H12 were left empty in the clear plate as the blank. Plates were then incubated at 37° C. in a 5% CO2 environment for 24 h.
(§2) On the following day compound dilutions are made up in medium at twice their desired final concentration in a clear round bottomed plate. All dilutions have a final DMSO concentration of 1%.
Once the dilution plate had been made up, controls and compounds were transferred to the assay plate (containing the cells) at 100 μl /well in duplicate plates. Exception: no compound was added to wells A1 and A2 of either plate and 100 μl of 1% DMSO was added to these instead. Plates were then incubated at 37° C. with 5% CO2 for 72 h.
At the end of the incubation time, the cells in the white plate were harvested by washing 23.5 mM beetle luciferin (Promega E1603), 26 mM ATP (Sigma 0-2060) in […] Tris buffer pH 7.8 aliquoted and stored at −80 C was thawed and diluted 1:50 in luciferase assay buffer (20 mM Tricine (Sigma T-0377), 1.07 mM magnesium carbonate hydroxide (Sigma M-5671), 0.1 mM EDTA (Sigma E-5134), 2.67 mM MgSO4 (BDH 101514Y), 33.3 mM dithiothreitol (Sigma 150460) pH 7.8).
The M injector of the microplate luminometer (Lmax, Molecular Devices) was primed with 5×300 μl injections of the diluted substrate. After 5-60 min incubation in lysis buffer at room temperature, a plate was inserted into the luminometer and 100 μl luciferase assay reagent was added by the injector on the luminometer. The signal was measured using a 1 second delay followed by a 4 second measurement programme.

[2] = tested on: HCV replicon cells Huh 9B; assay type: cell-based
Method: as §1
A flask of cells was trypsinised and a cell count carried out. […] Wells G12 and H12 were left empty in the clear plate as the blank. Plates were then incubated at 37° C. in a 5% CO2 environment for 24 h.
as §2
Exception: no compound was added to wells A1 and A2 of either plate and 100 μl of 1% DMSO was added to these instead. Plates were then incubated at 37° C. with 5% CO2 for 72 h.
The clear plate was stained with 100 μl 0.5% methylene blue in 50% ethanol at room temperature for 1 h, followed by solvation of the absorbed methylene blue in 100 μl per well of 1% lauroylsarcosine. Absorbance of the plate was measured on a microplate spectrophotometer (Molecular Devices) and the absorbance for each concentration of compound expressed as a proportion of the relative DMSO control.

[3] = Hepatitis C virus, 72 h, concentration reducing replicon level (luciferase activity) by 50% vs untreated cell control, 72 h incubation
[4] = concentration reducing total cell area by 50% relative to DMSO controls, methylene blue, absorbance 620 nm, 72 h incubation

Compound | IC50 [1] | TD50 [2] | IC50 [1, 3] | TD50 [2, 4]
Cc1ccc(C(=O)Nc2ccc(N3CCOCC3)cc2)cc1-c1ccc(C(=O)NCc2ccc(N3CCOCC3)cc2)cc1 [Example 20, 6-Methyl-biphenyl-3,4′-dicarboxylic acid 4′-(4-morpholin-4-yl-benzylamide) 3-[(4-morpholin-4-yl-phenyl)-amide]] | > 5 µM | ** (key: * < 50 μM; ** > 50 μM) |  | 
CCCCNS(=O)(=O)c1cccc(NC(=O)c2ccc(-c3cc(C(=O)Nc4ccc(N5CCOCC5)cc4)ccc3C)cc2)c1 [Example 21, 6-Methyl-biphenyl-3,4′-dicarboxylic acid 4′-[(3-butylsulfamoyl-phenyl)-amide] 3-[(4-morpholin-4-yl-phenyl)-amide]] | 1 to 5 µM | ** (key: * < 50 μM; ** > 50 μM) |  | 
Cc1ccc(C(=O)Nc2ccc(N3CCOCC3)cc2)cc1-c1ccc(C(=O)Nc2ccc(Cl)c(Cl)c2)cc1 [Example 22, 6-Methyl-biphenyl-3,4′-dicarboxylic acid 4′-[(3,4-dichloro-phenyl)-amide] 3-[(4-morpholin-4-yl-phenyl)-amide]] | 1 to 5 µM | ** (key: * < 50 μM; ** > 50 μM) |  | 
Cc1ccc(C(=O)Nc2ccc(N3CCOCC3)cc2)cc1-c1ccc(C(=O)Nc2cccc(C(F)(F)F)c2)cc1 [Example 23, 6-Methyl-biphenyl-3,4′-dicarboxylic acid 3-[(4-morpholin-4-yl-phenyl)-amide] 4′-[(3-trifluoromethyl-phenyl)-amide]] | 1 to 5 µM | * (key: * < 50 μM; ** > 50 μM) |  | 
Cc1ccc(C(=O)Nc2ccc(N3CCOCC3)cc2)cc1-c1ccc(C(=O)Nc2ccc(C#N)cc2)cc1 [Example 24, 6-Methyl-biphenyl-3,4′-dicarboxylic acid 4′-[(4-cyano-phenyl)-amide] 3-[(4-morpholin-4-yl-phenyl)-amide]] | > 5 µM | ** (key: * < 50 μM; ** > 50 μM) |  | 
Cc1ccc(C(=O)Nc2ccc(N3CCOCC3)cc2)cc1-c1ccc(C(=O)Nc2cccc(OC(F)(F)F)c2)cc1 [Example 25, 6-Methyl-biphenyl-3,4′-dicarboxylic acid 3-[(4-morpholin-4-yl-phenyl)-amide] 4′-[(3-trifluoromethoxy-phenyl)-amide]] | 1 to 5 µM | * (key: * < 50 μM; ** > 50 μM) |  | 
Cc1ccc(C(=O)Nc2ccc(N3CCOCC3)cc2)cc1-c1ccc(C(=O)Nc2cccc(-c3ccn(C)n3)c2)cc1 [Example 26, 6-Methyl-biphenyl-3,4′-dicarboxylic acid 4′-{[3-(1-methyl-1H-pyrazol-3-yl)-phenyl]-amide} 3-[(4-morpholin-4-yl-phenyl)-amide]] | > 5 µM | ** (key: * < 50 μM; ** > 50 μM) |  | 
Cc1ccc(C(=O)Nc2ccc(N3CCOCC3)cc2)cc1-c1ccc(C(=O)Nc2cccc(F)c2)cc1 [Example 27, 6-Methyl-biphenyl-3,4′-dicarboxylic acid 4′-[(3-fluoro-phenyl)-amide] 3-[(4-morpholin-4-yl-phenyl)-amide]] | 1 to 5 µM | ** (key: * < 50 μM; ** > 50 μM) |  | 
Cc1ccc(C(=O)Nc2ccc(N3CCOCC3)cc2)cc1-c1ccc(C(=O)Nc2ccc(-c3ccno3)cc2)cc1 [Example 28, 6-Methyl-biphenyl-3,4′-dicarboxylic acid 4′-[(4-isoxazol-5-yl-phenyl)-amide] 3-[(4-morpholin-4-yl-phenyl)-amide]] | < 1 µM | ** (key: * < 50 μM; ** > 50 μM) |  | 
CNS(=O)(=O)c1ccc(NC(=O)c2ccc(-c3cc(C(=O)Nc4ccc(N5CCOCC5)cc4)ccc3C)cc2)cc1 [Example 29, 6-Methyl-biphenyl-3,4′-dicarboxylic acid 4′-[(4-methylsulfamoyl-phenyl)-amide] 3-[(4-morpholin-4-yl-phenyl)-amide]] | < 1 µM | ** (key: * < 50 μM; ** > 50 μM) |  | 
Cc1ccc(C(=O)Nc2ccc(N3CCOCC3)cc2)cc1-c1ccc(C(=O)Nc2ccc(Br)c(Cl)c2)cc1 [Example 30, 6-Methyl-biphenyl-3,4′-dicarboxylic acid 4′-[(4-bromo-3-chloro-phenyl)-amide] 3-[(4-morpholin-4-yl-phenyl)-amide]] | 1 to 5 µM | ** (key: * < 50 μM; ** > 50 μM) |  | 
Cc1ccc(C(=O)Nc2ccc(N3CCOCC3)cc2)cc1-c1ccc(C(=O)Nc2cccc(C(C)O)c2)cc1 (stereo not drawn) [Example 31, 6-Methyl-biphenyl-3,4′-dicarboxylic acid 4′-{[3-(1-hydroxy-ethyl)-phenyl]-amide} 3-[(4-morpholin-4-yl-phenyl)-amide]] | 1 to 5 µM | ** (key: * < 50 μM; ** > 50 μM) |  | 
CCOC(=O)c1cccc(NC(=O)c2ccc(-c3cc(C(=O)Nc4ccc(N5CCOCC5)cc4)ccc3C)cc2)c1 [Example 32, 3-{[2′-Methyl-5′-(4-morpholin-4-yl-phenylcarbamoyl) -biphenyl-4-carbonyl]-amino}-benzoic acid ethyl ester] |  |  | < 1 µM | ** (** > 50 μM)
COc1cccc(NC(=O)c2ccc(-c3cc(C(=O)Nc4ccc(N5CCOCC5)cc4)ccc3C)cc2)c1 [Example 33, 6-Methyl-biphenyl-3,4′-dicarboxylic acid 4′-[(3-methoxy-phenyl)-amide] 3-[(4-morpholin-4-yl-phenyl)-amide]] | < 1 µM | ** (key: * < 50 μM; ** > 50 μM) |  | 
COc1ccc(NC(=O)c2ccc(-c3cc(C(=O)Nc4ccc(N5CCOCC5)cc4)ccc3C)cc2)cc1OC [Example 34, 6-Methyl-biphenyl-3,4′-dicarboxylic acid 4′-[(3,4-dimethoxy-phenyl)-amide] 3-[(4-morpholin-4-yl-phenyl)-amide]] | 1 to 5 µM | ** (key: * < 50 μM; ** > 50 μM) |  | 
Cc1ccc(C(=O)Nc2ccc(N3CCOCC3)cc2)cc1-c1ccc(C(=O)Nc2ccccc2CN(C)C2CCCCC2)cc1 [Example 35, 6-Methyl-biphenyl-3,4′-dicarboxylic acid 4′-({2-[(cyclohexyl-methyl-amino)-methyl]-phenyl}-amide) 3-[(4-morpholin-4-yl-phenyl)-amide]] | > 5 µM | ** (key: * < 50 μM; ** > 50 μM) |  | 
Cc1ccc(C(=O)Nc2ccc(N3CCOCC3)cc2)cc1-c1ccc(C(=O)Nc2cccnc2)cc1 [Example 36, 6-Methyl-biphenyl-3,4′-dicarboxylic acid 3-[(4-morpholin-4-yl-phenyl)-amide] 4′-pyridin-3-ylamide] | 1 to 5 µM | * (key: * < 50 μM; ** > 50 μM) |  | 
Cc1ccc(C(=O)Nc2ccc(N3CCOCC3)cc2)cc1-c1ccc(C(=O)N2CCN(c3cccc(Cl)c3Cl)CC2)cc1 [Example 37, 4′-[4-(2,3-Dichloro-phenyl)-piperazine-1-carbonyl]-6-methyl-biphenyl-3-carboxylic acid (4-morpholin-4-yl-phenyl)-amide] |  |  | > 5 µM | ** (** > 50 μM)
Cc1ccc(C(=O)Nc2ccc(N3CCOCC3)cc2)cc1-c1ccc(C(=O)Nc2ccc3[nH]c(C(F)(F)F)nc3c2)cc1 [Example 38, 6-Methyl-biphenyl-3,4′-dicarboxylic acid 3-[(4-morpholin-4-yl-phenyl)-amide] 4′-[(2-trifluoromethyl-1H-benzoimidazol-5-yl)-amide]] | 1 to 5 µM | ** (key: * < 50 μM; ** > 50 μM) |  | 
Cc1ccc(C(=O)Nc2ccc(N3CCOCC3)cc2)cc1-c1ccc(C(=O)Nc2ccc(CC#N)cc2)cc1 [Example 39, 6-Methyl-biphenyl-3,4′-dicarboxylic acid 4′-[(4-cyanomethyl-phenyl)-amide] 3-[(4-morpholin-4-yl-phenyl)-amide]] | 1 to 5 µM | * (key: * < 50 μM; ** > 50 μM) |  | 
Cc1ccc(C(=O)Nc2ccc(N3CCOCC3)cc2)cc1-c1ccc(C(=O)NCc2ccsc2)cc1 [Example 40, 6-Methyl-biphenyl-3,4′-dicarboxylic acid 3-[(4-morpholin-4-yl-phenyl)-amide] 4′-[(thiophen-3-ylmethyl)-amide]] | 1 to 5 µM | ** (key: * < 50 μM; ** > 50 μM) |  | 
